{
  "source": "patent US6977253B2",
  "about": "“Methods for the treatment of bipolar disorder using carbamazepine” (Shire Pharmaceutical Development Inc., priority 2003, dated 2005)",
  "origin": "cited, not measured here",
  "test_system": "acute mania",
  "conditions": "controlled carbamazepine monotherapy trials in acute mania; McElroy and Keck 2000",
  "data": [
    {"smiles": "NC(=O)N1c2ccccc2C=Cc2ccccc21", "note": "[carbamazepine, 5-carbamoyl-5H-dibenz(b,f)azepine]", "values": [
      {"measurement": "Pooled response rate", "value": 52, "unit": "%"}
    ]}
  ]
}
